{
  "source": "patent US12565515B2",
  "about": "“1,2,4-oxadiazole compounds as inhibitors of CD47 signalling pathways” (AURIGENE ONCOLOGY LIMITED, priority 2018, dated 2026)",
  "key": {"A20 syngeneic lymphoma": {"test_system": "A20 syngeneic lymphoma", "test": "Efficacy in A20 syngeneic lymphoma model", "format": "in vivo", "conditions": "for TGI (%): per orally", "from_the_text": "Female Balb/c (BALB/cAnNTac) mice (6-8 weeks-old) bred in-house were used in this efficacy study in the A20 syngeneic lymphoma model. Animals were marked individually with tail marks and kept in cages that were identified by a cage card showing the study code, date of experimentation, sex and number of animals. During the experiment, the animals were weighed daily. A20 cell line (B-cell lymphoma line derived from a spontaneous reticulum cell neoplasm found in an old BALB/cAnN mouse) was procured from ATCC. When the mean tumor volumes reached approximately 75 mm^3, the animals were randomized based on tumour volumes into four groups of twelve animals in each group. Following randomization into various treatment groups, dosing with vehicle and Compound 6 was initiated. All treatments were administered per orally at a twice daily dosing frequency using a dose of 3 mg/kg, 10 mg/Kg and 30 mg/Kg. The treatment was continued for a period of 21 days after which the overall efficacy and tolerability were evaluated based on tumor volume and body weight changes observed during the treatment period. On treatment day 21, animals from all the treatment groups were sacrificed in sequential order at 1 hour after last dose administration.\nIndividual animal body weights were recorded daily before the administration of test item throughout the experimental period. […] The tumor volumes were measured in all treatment group animals thrice a week (once every 2-3 days) using a digital Vernier callipers. From an ethical viewpoint, any treatment/control group with a mean tumor weight in excess of 10% of animal body weight were humanely sacrificed. As a measure of efficacy, the % T (treatment)/C(control) and % TGI (% Tumor growth inhibition) values were calculated. Graphs and statistical analysis were performed using GraphPad Prism®, Version 7.0. For analysis of tumor volume data, statistical comparison was done on Day 21 for all groups using One-way ANOVA with Dunnett's multiple comparison test. All analyses and comparisons was evaluated at the 5% (p<0.05) level. A “p” value less than 0.05 was considered as significant."}, "[1]": {"test_system": "luciferase expressing Raji cells", "test": "Luciferase based phagocytosis assay", "format": "cell-based", "conditions": "human monocyte-derived macrophages, luminescence, read-out: % normalized phagocytosis (at 10 μM)", "method": "(§1) DPBS (Gibco), RPMI 1640 WITH HEPES AND L-GLN-500 ML (Lonza), Recombinant Human M-CSF (R& D systems), CD47 Monoclonal Antibody (B6H12), Functional Grade antibody (Ebioscience), Mouse IgG1 kappa Isotype Control, Functional Grade (Ebioscience), Vacutainer (multiple sample luer adapter) (BD), Vacutainer (sodium heparin (NH) 158USP units, Blood collection tubes (BD), Histopaque (density—1.077 gm/ml) (SIGMA 1077), Trypan Blue solution (SIGMA-T8154), Hemacytometer (Bright line-SIGMA Z359629), Scalp vein infusion set (JMS), Cell Dissociation buffer (Gibco), 48-well sterile flat bottom plates (Corning), Luciferase expressing Raji cells (Generated in house by trasfection of luciferase gene in Raji cells) Luminometer, Hygromycin B (Invitrogen), Bright Glo luciferase assay system (Promega), 96 well plate, polystyrene, high band, white flat bottom wells (Sigma CLS3912), APC anti-mouse/human CD11b Antibody (Biolegend), H929 cells, CFSE (Ebioscience), Fetal Bovine Serum (Gibco Cat #: 10437028), Round-Bottom FACs Tubes (BD), Flowcytometer BD FACS Verse, 96 well plates, ultra-low attachment (Corning).\nIn vitro phagocytosis assay was performed to evaluate the ability of test item to enhance the phagocytic activity of macrophages. Monocytes were isolated from blood of healthy donor and cultured for 6-8 days using 10% RPMI (Roswell Park Memorial Institute) media and recombinant human M-CSF to differentiate into macrophages. Media was changed every alternate day. After differentiation, adherent macrophages were collected by gentle scraping and cultured in 10% RPMI overnight at a density of 0.1 million per well in 48 well tissue culture plate. Simultaneously, luciferase expressing Raji cells were cultured in 10% RPMI media with 100 μg/mL of hygromycin B in tissue culture flask. On the day of phagocytosis, macrophages were serum starved for 2 hours. 0.4 million luciferase expressing Raji cells per well were incubated with anti human CD47 purified B6H12 or Mouse IgG1 K Isotype Control antibody or various concentrations of test item in serum free media for 30 min at 37° C. and added into respective well of the 48 well plate seeded with macrophages. After 2 hours, cells were washed twice with PBS and 100 μL of serum free RPMI was added to each well. Additionally, 50 μL Bright Glow reagent was added to each well followed by mixing of cells and incubated for 5 min in dark. Luminescence reading was taken using plate reader after transferring the content of each well to white plate. Intensity of luminescence indicated the extent of phagocytosis. Each experimental condition was carried out in duplicate."}, "H929 cells": {"test_system": "H929 cells", "test": "FACS based phagocytosis assay", "format": "cell-based", "conditions": "NCI-H929, human macrophages, CFSE stained H929 cells, flow cytometry, normalized to positive control B6H12", "method": "as §1\nMonocytes were isolated from blood of healthy donor and cultured for 6-8 days using 10% RPMI (Roswell Park Memorial Institute) media and recombinant human M-CSF to differentiate into macrophages. Media was changed every alternate day. Simultaneously, H929 cells were cultured in 10% RPMI media with 50 μg/mL of betamercaptoethanol in tissue culture flask. On the day of phagocytosis adherent macrophages were serum starved for 2 hours in RPMI media. Simultaneously H929 cells were stained with 0.3 μM CFSE stain. After washing, 0.2 million CFSE stained H929 cells were incubated with anti-human CD47 or Mouse IgG1 K Isotype Control antibody or various conc of test item in serum free media for 30 min at 37° C. After 2 hours of serum starvation macrophages were dissociated with cell dissociation buffer and collected by gentle scraping and added at conc of 0.05 million per well into respective wells of the ultra-low attachment 96 well plate seeded with H929 cells. Phagocytosis was allowed for 2 hours. After 2 hours, cells were washed with PBS and stained with 1 μL of anti-human CD11b-APC antibody prepared in 100 μL of PBS for 30 min in 4° C. in dark. Cells were further washed and fixed in 100 μL of fixation buffer until acquired by Flow cytometry. The extent of phagocytosis of H929 cells by human macrophages was measured by acquiring the samples by Flow cytometry. Samples acquired by Flow cytometry were analysed by using FlowJo software. Each experimental condition was carried out in duplicate. Cells positive for FITC (CFSE) and CD11b-APC were considered as phagocytosed macrophages. Raw data of % phagocytosis by macrophages were obtained in the form of excel sheet from FlowJo. % phagocytosis from isotype control (background phagocytosis) was subtracted from % phagocytosis of macrophages treated with compound as well as other controls to get corrected phagocytosis values. Corrected phagocytosis values of compound treated samples were normalized with phagocytosis of positive control (B6H12) using the formula: % normalized phagocytosis=[(corrected % phagocytosis of compound)/(corrected phagocytosis of B6H12)*100]"}},
  "data": [
    {"smiles": "NC(=O)CC[C@H](N)c1noc(CNC(=O)N2CCCC2C(=O)O)n1", "note": "(stereo partly shown) [Compound 6]", "values": [
      {"measurement": "TGI (%)", "setting": "A20 syngeneic lymphoma; 3 mg/kg (bid), 21 days, Balb/c mice", "value": 53, "unit": "%"},
      {"measurement": "TGI (%)", "setting": "A20 syngeneic lymphoma; 10 mg/kg (bid), 21 days, Balb/c mice", "value": 64, "unit": "%"},
      {"measurement": "TGI (%)", "setting": "A20 syngeneic lymphoma; 30 mg/kg (bid), 21 days, Balb/c mice", "value": 67, "unit": "%"},
      {"measurement": "tolerability (body weight, clinical signs of toxicity)", "setting": "A20 syngeneic lymphoma; 3, 10 and 30 mg/kg bid per orally, 21 days, Balb/c mice", "value": "well tolerated without any signs of body weight loss and/or clinical signs of toxicity"},
      {"measurement": "antitumor efficacy, significance of tumor growth inhibition", "setting": "A20 syngeneic lymphoma; all the tested dose levels (3, 10, 30 mg/kg bid), Day 21, one-way ANOVA", "value": "statistically significant tumor growth inhibition (TGI) at all the tested dose levels"},
      {"measurement": "activation at 10 µM", "setting": "[1]", "value": 66, "unit": "%"},
      {"measurement": "activation at 10 µM", "setting": "H929 cells", "value": 74, "unit": "%"}
    ]}
  ]
}
